From ChEMBL document CHEMBL1201862, “PubChem BioAssay data set” (2004)
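The compound was tested at five concentrations on cells cultured in 96-well plates, with a 48-hour exposure period. GI50 marks 50% less growth.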 Activity calls are given as the source filed them. No stated cut-off is given here; in the data, active = GI50 up to about 1.1 µM and inactive = higher.

How the values were obtained:
Assay in all cases: NCI-60 cell line screen, 48 h
786-0 = system: 786-0
LOX IMVI = system: LOX IMVI
M14 = system: M14
U-251 = system: U-251
HT-29 = system: HT-29
NCI-H460 = system: NCI-H460
SF-268 = system: SF-268
KM12 = system: KM12
HCT-116 = system: HCT-116
K562 = system: K562
SK-MEL-28 = system: SK-MEL-28
ACHN = system: ACHN
NCI-H522 = system: NCI-H522
MOLT-4 = system: MOLT-4
A498 = system: A498
SR = system: SR
HOP-92 = system: HOP-92

SMILES | GI50 (786-0) | GI50 (LOX IMVI) | GI50 (M14) | GI50 (U-251) | GI50 (HT-29) | GI50 (NCI-H460) | GI50 (SF-268) | GI50 (KM12) | GI50 (HCT-116) | GI50 (K562) | GI50 (SK-MEL-28) | GI50 (ACHN) | GI50 (NCI-H522) | GI50 (MOLT-4) | GI50 (A498) | GI50 (SR) | GI50 (HOP-92)
Cc1cccc2c1c1ccc3c(c1n2C)C(=O)C=CC3=O | 1.94 µM (inactive) | 4.94 µM (inactive) | 6.22 µM (inactive) | 10.3 µM (inactive) | 3.47 µM (inactive) | 17.3 µM (inactive) | 14 µM (inactive) | 13.2 µM (inactive) | 5.86 µM (inactive) | 1.95 µM (inactive) | 9.71 µM (inactive) | 7.73 µM (inactive) | 1.51 µM (inactive) | 0.536 µM (active) | 27.4 µM (inactive) | 1.43 µM (inactive) | 2.08 µM (inactive)
Cc1ccc(N2C(=O)/C(=C3\Sc4c(nc(C)n(C)c4=O)N3c3ccccc3)SC2=S)cc1 | 36.9 µM (inactive) | > 100 µM (inactive) | > 100 µM (inactive) | 42.7 µM (inactive) | > 100 µM (inactive) | 19.1 µM (inactive) | 34.6 µM (inactive) | > 100 µM (inactive) | 64.7 µM (inactive) | > 100 µM (inactive) | 41.1 µM (inactive) | > 100 µM (inactive) | > 100 µM (inactive) | > 100 µM (inactive) | 30.1 µM (inactive) | > 100 µM (inactive) | 33.8 µM (inactive)
COC(=O)C(=O)C(CC(=O)Nc1cc(Cl)ccc1Cl)C(=O)OC (stereo not drawn) | > 100 µM (inactive) | > 100 µM (inactive) | > 100 µM (inactive) | > 100 µM (inactive) | > 100 µM (inactive) | > 100 µM (inactive) | > 100 µM (inactive) | > 100 µM (inactive) | > 100 µM (inactive) | > 100 µM (inactive) | > 100 µM (inactive) | > 100 µM (inactive) | > 100 µM (inactive) | > 100 µM (inactive) | > 100 µM (inactive) | > 100 µM (inactive) | > 100 µM (inactive)
COc1ccc(Cn2c(C)nc3c2C(=O)c2ccccc2C3=O)cc1 | 5.4 µM (inactive) | 2.52 µM (inactive) | 11.6 µM (inactive) | 6.32 µM (inactive) | 4.94 µM (inactive) | 2.38 µM (inactive) | 4.49 µM (inactive) | 5.31 µM (inactive) | 3.74 µM (inactive) | 3.2 µM (inactive) | 21 µM (inactive) | 10.3 µM (inactive) | 6.01 µM (inactive) | 2.59 µM (inactive) |  | 1.44 µM (inactive) | 
COC(=O)C1=C(c2cc(OC)c(OC)c(OC)c2)OC(c2cc(OC)c(OC)c(OC)c2)C1 (stereo not drawn) | 24.8 µM (inactive) | 17.9 µM (inactive) | 20.5 µM (inactive) | 20.5 µM (inactive) | 24.3 µM (inactive) | 28.4 µM (inactive) | 46.2 µM (inactive) | 17.7 µM (inactive) | 17 µM (inactive) | 28.8 µM (inactive) | 53.1 µM (inactive) | 20.2 µM (inactive) |  | 22.9 µM (inactive) | 24.1 µM (inactive) | 18 µM (inactive) | 10.7 µM (inactive)
COc1ccc(C2=C(Cl)c3cc(OC)c(OC)cc3C2)cc1OC | > 100 µM (inactive) |  | > 100 µM (inactive) | > 100 µM (inactive) | > 100 µM (inactive) |  | > 100 µM (inactive) |  | > 100 µM (inactive) | > 100 µM (inactive) | > 100 µM (inactive) | > 100 µM (inactive) | > 100 µM (inactive) | > 100 µM (inactive) | 34.9 µM (inactive) | > 100 µM (inactive) | > 100 µM (inactive)
CC(=O)CC(=O)Nc1ccc(OS(N)(=O)=O)cc1 | > 100 µM (inactive) |  | > 100 µM (inactive) | > 100 µM (inactive) | > 100 µM (inactive) | > 100 µM (inactive) | > 100 µM (inactive) | > 100 µM (inactive) | > 100 µM (inactive) | > 100 µM (inactive) | > 100 µM (inactive) | > 100 µM (inactive) | > 100 µM (inactive) | > 100 µM (inactive) | > 100 µM (inactive) | > 100 µM (inactive) | > 100 µM (inactive)
COc1ccc2c(c1)[n+]([O-])c(C(=O)CC(=O)C(=O)Nc1cccc(C)c1C)c(C)[n+]2[O-] | > 100 µM (inactive) | > 100 µM (inactive) | > 100 µM (inactive) | > 100 µM (inactive) | > 100 µM (inactive) | > 100 µM (inactive) | > 100 µM (inactive) | > 100 µM (inactive) | > 100 µM (inactive) | > 100 µM (inactive) | > 100 µM (inactive) | > 100 µM (inactive) | > 100 µM (inactive) | > 100 µM (inactive) |  | > 100 µM (inactive) | > 100 µM (inactive)
CC(=O)OCc1c2ccccc2c(C)c2c1cc(F)c1ccccc12 | 30.1 µM (inactive) | 18.5 µM (inactive) | 34 µM (inactive) | 23.7 µM (inactive) | 17.7 µM (inactive) |  | 29.8 µM (inactive) | > 100 µM (inactive) | 31.3 µM (inactive) | 21.2 µM (inactive) | 97.5 µM (inactive) | 17.5 µM (inactive) | 12.2 µM (inactive) | 7.74 µM (inactive) | 39 µM (inactive) | 12.6 µM (inactive) | 40.6 µM (inactive)
CC(=O)N1CCN(c2ccc(OCC3COC(Cn4ccnc4)(c4ccc(Cl)cc4Cl)O3)cc2)CC1 (stereo not drawn) [KETOCONAZOLE] | 36 µM (inactive) | 16.9 µM (inactive) | 22.4 µM (inactive) |  | 18.9 µM (inactive) | 32.5 µM (inactive) |  | 30.6 µM (inactive) | 22.3 µM (inactive) | 28.7 µM (inactive) | 34.6 µM (inactive) | 36.2 µM (inactive) | 25.6 µM (inactive) | 22.5 µM (inactive) | 37 µM (inactive) | 20.2 µM (inactive) | 41.7 µM (inactive)
O=C1OC(Cc2ccccc2)(N2CCCC2=O)C1c1ccccc1 (stereo not drawn) | > 100 µM (inactive) |  | > 100 µM (inactive) | 44.7 µM (inactive) | > 100 µM (inactive) | > 100 µM (inactive) | > 100 µM (inactive) | 74.8 µM (inactive) | 53.2 µM (inactive) | 63.8 µM (inactive) | > 100 µM (inactive) | 75.2 µM (inactive) | 48.2 µM (inactive) | 43.6 µM (inactive) | 4.95 µM (inactive) | 56.4 µM (inactive) | 62.8 µM (inactive)
CC1(C)C=C(N2CCN(C3=CC(C)(C)NC(C)(C)C3)CC2)CC(C)(C)N1 | > 100 µM (inactive) | > 100 µM (inactive) | > 100 µM (inactive) | > 100 µM (inactive) | > 100 µM (inactive) | > 100 µM (inactive) | > 100 µM (inactive) | > 100 µM (inactive) | > 100 µM (inactive) | > 100 µM (inactive) | > 100 µM (inactive) | > 100 µM (inactive) | > 100 µM (inactive) | > 100 µM (inactive) | > 100 µM (inactive) | > 100 µM (inactive) | > 100 µM (inactive)
CC(=S)NNC(=O)c1ccncc1 | > 100 µM (inactive) | > 100 µM (inactive) | > 100 µM (inactive) | > 100 µM (inactive) | > 100 µM (inactive) | > 100 µM (inactive) | > 100 µM (inactive) | > 100 µM (inactive) | > 100 µM (inactive) | > 100 µM (inactive) | > 100 µM (inactive) | > 100 µM (inactive) | > 100 µM (inactive) | > 100 µM (inactive) | > 100 µM (inactive) | > 100 µM (inactive) | > 100 µM (inactive)
CCOC(=O)/C(=C\c1ccc(OCc2ccccc2)c(OC)c1)C(=O)c1ccccc1 | 20 µM (inactive) | 15.9 µM (inactive) | 15 µM (inactive) | 17.3 µM (inactive) |  |  |  | 19.5 µM (inactive) | 17.5 µM (inactive) | 19.9 µM (inactive) | 14.6 µM (inactive) | 18.1 µM (inactive) | 17.7 µM (inactive) | 18.3 µM (inactive) |  | 33 µM (inactive) | 
CC(CC[C@@H](C)C1CCC2[C@@H]3CC(O)C4CC(O)[C@@H](O)C[C@]4(C)C3CC[C@@]21C)C(C)(C)C (stereo partly drawn) | > 100 µM (inactive) | > 100 µM (inactive) | > 100 µM (inactive) | > 100 µM (inactive) | > 100 µM (inactive) | > 100 µM (inactive) | > 100 µM (inactive) | > 100 µM (inactive) | > 100 µM (inactive) | > 100 µM (inactive) | > 100 µM (inactive) | > 100 µM (inactive) |  | > 100 µM (inactive) | > 100 µM (inactive) | > 100 µM (inactive) | > 100 µM (inactive)
Cc1ccc(/C=N\NC2c3cc(Cl)ccc3Nc3nc(O)nc(C)c32)cc1 (stereo not drawn) | > 100 µM (inactive) | > 100 µM (inactive) | 57.1 µM (inactive) | > 100 µM (inactive) | > 100 µM (inactive) | > 100 µM (inactive) | > 100 µM (inactive) | > 100 µM (inactive) | 46.8 µM (inactive) | 56.5 µM (inactive) | > 100 µM (inactive) | > 100 µM (inactive) | > 100 µM (inactive) | 4.92 µM (inactive) |  | 7.29 µM (inactive) | 43.3 µM (inactive)
CC1COC(C)(C)P(=O)(c2ccccc2)C1 (stereo not drawn) | > 100 µM (inactive) | > 100 µM (inactive) | > 100 µM (inactive) | > 100 µM (inactive) | > 100 µM (inactive) | > 100 µM (inactive) |  | > 100 µM (inactive) | > 100 µM (inactive) | > 100 µM (inactive) | > 100 µM (inactive) | > 100 µM (inactive) | > 100 µM (inactive) | > 100 µM (inactive) | > 100 µM (inactive) | > 100 µM (inactive) | 
